Values quoted from earlier work, collected in US20250375478A1, “THERAPEUTIC COMPOSITION, ASSEMBLY KIT AND METHOD FOR THE TREATMENT OF DRY EYE DISEASE AND PROMOTION OF OCULAR HEALTH” (PReye, LLC, priority 2025, published 2025).

Conditions: ferulic acid combined in solution with Vitamin C

Compound: COc1cc(/C=C/C(=O)O)ccc1O [Ferulic acid]
- stabilization of Vitamin C: up to 90%
